# Where two headings read alike, the source gives them in different places.
# How the values were obtained:
# [1] = target: T1, recombinant α1d-adrenoceptor (Homo sapiens, UniProt P25100); assay: Radioligand binding assay ([3H]prazosin) on cloned α1-adrenoceptor subtype, membranes of transfected cells
# T1 sequence (P25100 1-572): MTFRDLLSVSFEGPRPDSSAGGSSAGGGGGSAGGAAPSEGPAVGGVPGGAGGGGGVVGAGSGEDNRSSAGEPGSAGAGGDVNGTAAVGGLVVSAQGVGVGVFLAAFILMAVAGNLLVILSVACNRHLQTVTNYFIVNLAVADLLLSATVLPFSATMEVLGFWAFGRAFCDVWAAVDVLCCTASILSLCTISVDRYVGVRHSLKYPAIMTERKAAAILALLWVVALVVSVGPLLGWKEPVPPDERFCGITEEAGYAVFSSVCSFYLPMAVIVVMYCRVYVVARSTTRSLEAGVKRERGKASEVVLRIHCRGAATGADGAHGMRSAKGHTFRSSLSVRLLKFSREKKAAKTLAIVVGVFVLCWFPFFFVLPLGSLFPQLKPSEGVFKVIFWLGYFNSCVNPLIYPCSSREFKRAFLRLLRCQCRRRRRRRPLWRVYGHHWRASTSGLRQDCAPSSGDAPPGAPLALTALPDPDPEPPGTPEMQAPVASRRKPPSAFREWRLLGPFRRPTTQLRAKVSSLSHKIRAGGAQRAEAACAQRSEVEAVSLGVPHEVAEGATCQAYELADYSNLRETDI
# Method: (§2) Determination of affinity for cloned subtypes of the cloned α1-adrenoceptor was performed in membranes from cells transfected by electroporation with DNA expressing the genes encoding each α1-adrenoceptor subtype.
# (§3) Non-specific binding was determined in the presence of 10 µM phentolamine. Incubation was stopped by addition of ice-cold Tris buffer and rapid filtration through 0.2%-polyethyleneimine pretreated Schleicher & Schuell GF52 filters. […] The homogenates were centrifuged at 40000 × g × 20 minutes and the membranes were resuspended in a small volume of ice-cold buffer containing Tris 5 mM and EDTA 5 mM (pH 7.4) and immediately frozen and stored at -70°C until use.
# [2] = test system: diastolic blood pressure (DBP); assay: Effect on diastolic blood pressure in anaesthetised dogs, i.v. administration; assay type: in vivo; conditions: dog, dose inducing a 25% decrease in diastolic blood pressure, one value spanning c3 and c4
# Method: The experiments were performed according to the method of Imagawa J. et al., J Pharmacol. Methods 22, 103-111 (1989), with substantial modifications, as follows: adult male beagle dogs, weighing 8-10 kg, were anaesthetised with pentobarbital sodium (30 mg/kg i.v. and 2 mg/kg/h i.v.), intubated and spontaneously ventilated with room air. In order to monitor systemic blood pressure (BP), a polyethylene (PE) catheter was introduced into the aortic arch through the left femoral artery. A collateral of the left femoral vein was cannulated for infusion of anaesthetic, and the right femoral vein was cannulated for administration of the compounds. For intraarterial (i.a.) injection of noradrenaline (NA), a PE catheter was introduced into the lower portion of the abdominal aorta via the right external iliac artery. Through such procedure, NA was selectively distributed to the lower urinary tract. A paramedian vertical suprapubic incision extending from the base of the pelvis to the mid-abdominal region was made and the bladder and the prostate were exposed. The bladder was manually emptied with a syringe. […] The distal end of the right or left branch of the nerve was placed on a bipolar platinum electrode. Prostatic urethral pressure was monitored with a Mikro-tip catheter (5F) introduced into the bladder via the external urethral meatus, and withdrawn until the pressure transducer was positioned in the prostatic region of the urethra. A ligature was secured between the neck of the bladder and urethra to isolate the response of the latter and to avoid any interaction with the bladder. Another ligature was put around the Mikro-tip catheter at the external meatus, to secure the catheter itself. The hypogastric nerve stimulation was made with a train of rectangular pulses of 10-15 V, 10-30 Hz, width 5 msec, 8 sec duration.
# After a stabilising period following the surgical procedure (30 minutes), in which arterial and prostatic urethral pressure were continuously monitored as basal values, i.a. administration of NA and stimulation of the hypogastric nerve were alternately made at intervals of 10 minutes.
# The dose of NA and the parameter of hypogastric nerve stimulation chosen were such as to produce an increase of at least 100% in urethral pressure. The test compounds were administered i.v. in a cumulative manner with intervals of 15-20 min between administrations. Both i.a. injections of NA and stimulations of the hypogastric nerve were repeated 5 minutes after every dosing of test compound with intervals of about 5 minutes between two stimulations. […]
# [3] = test system: urethral contractions (UP) induced by noradrenaline (NA); assay: Urethral contractions induced by noradrenaline injection in anaesthetised dogs, i.v. administration; assay type: in vivo; conditions: dog; for ED50: Canis lupus familiaris, iv, dose inhibiting by 50% urethral contractions induced by noradrenaline, read-out: UP ID50 NA; for R1 (DBP/NA): ratio DBP ED25 / UP ID50 NA
# Method: (§1) The experiments were performed according to the method of Imagawa J. et al., J Pharmacol. Methods 22, 103-111 (1989), with substantial modifications, as follows: adult male beagle dogs, weighing 8-10 kg, were anaesthetised with pentobarbital sodium (30 mg/kg i.v. and 2 mg/kg/h i.v.), intubated and spontaneously ventilated with room air. In order to monitor systemic blood pressure (BP), a polyethylene (PE) catheter was introduced into the aortic arch through the left femoral artery. A collateral of the left femoral vein was cannulated for infusion of anaesthetic, and the right femoral vein was cannulated for administration of the compounds. For intraarterial (i.a.) injection of noradrenaline (NA), a PE catheter was introduced into the lower portion of the abdominal aorta via the right external iliac artery. Through such procedure, NA was selectively distributed to the lower urinary tract. A paramedian vertical suprapubic incision extending from the base of the pelvis to the mid-abdominal region was made and the bladder and the prostate were exposed. The bladder was manually emptied with a syringe. […] The distal end of the right or left branch of the nerve was placed on a bipolar platinum electrode. Prostatic urethral pressure was monitored with a Mikro-tip cathe[…]) introduced into the bladder via the external urethral meatus, and withdrawn until the pressure transducer was positioned in the prostatic region of the urethra. A ligature was secured between the neck of the bladder and urethra to isolate the response of the latter and to avoid any interaction with the bladder. Another ligature was put around the Mikro-tip catheter at the external meatus, to secure the catheter itself. […] Both i.a. injections of NA and stimulations of the hypogastric nerve were repeated 5 minutes after every dosing of test compound with intervals of about 5 minutes between two stimulations. In order to compare the effects of the administered compound, dose/response curves were constructed by computing, at the peak effect, the percent decrease in diastolic blood pressure and the percent inhibition of the increase in urethral pressure induced by both types of stimulation used.
# [4] = target: T2, α1a adrenergic receptor (Homo sapiens, UniProt P35348); assay: Radioligand binding assay ([3H]prazosin) on cloned α1-adrenoceptor subtype, membranes of transfected cells
# T2 sequence (P35348 1-466): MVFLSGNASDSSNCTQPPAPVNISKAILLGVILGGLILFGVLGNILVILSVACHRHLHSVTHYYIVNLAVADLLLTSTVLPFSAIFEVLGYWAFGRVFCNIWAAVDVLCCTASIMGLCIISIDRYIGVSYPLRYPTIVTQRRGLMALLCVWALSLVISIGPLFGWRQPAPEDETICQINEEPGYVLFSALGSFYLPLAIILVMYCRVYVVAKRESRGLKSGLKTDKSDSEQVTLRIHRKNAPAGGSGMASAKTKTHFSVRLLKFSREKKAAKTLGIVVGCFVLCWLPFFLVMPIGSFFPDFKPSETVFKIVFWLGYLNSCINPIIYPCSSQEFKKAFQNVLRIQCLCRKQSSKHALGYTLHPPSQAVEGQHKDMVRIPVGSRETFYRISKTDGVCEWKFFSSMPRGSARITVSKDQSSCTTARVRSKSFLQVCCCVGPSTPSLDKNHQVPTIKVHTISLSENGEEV
# Method: as §2, §3
# [5] = target: T3, human 5-HT1A-serotoninergic receptor (Homo sapiens, UniProt P08908); assay: Radioligand binding assay ([3H]8-OH-DPAT) on membranes of transfected HeLa cells; conditions: human receptor in HeLa cells, read-out: Affinity (Ki, nM) 5-HT1A
# T3 construct: expressed in transfected cells; host or cells: HeLa
# T3 sequence (P08908 1-422): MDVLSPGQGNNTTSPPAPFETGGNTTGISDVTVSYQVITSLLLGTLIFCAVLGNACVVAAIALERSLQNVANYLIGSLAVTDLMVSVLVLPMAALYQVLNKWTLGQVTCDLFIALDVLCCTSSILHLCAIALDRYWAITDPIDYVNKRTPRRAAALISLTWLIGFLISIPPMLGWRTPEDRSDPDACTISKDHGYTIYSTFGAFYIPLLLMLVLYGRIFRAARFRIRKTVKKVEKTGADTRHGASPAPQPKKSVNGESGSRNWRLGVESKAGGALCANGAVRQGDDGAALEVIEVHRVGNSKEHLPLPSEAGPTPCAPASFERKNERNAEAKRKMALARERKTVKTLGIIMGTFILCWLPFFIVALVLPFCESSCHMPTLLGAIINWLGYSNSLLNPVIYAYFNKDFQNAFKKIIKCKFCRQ
# Description: Data were expressed as mean of Ki.
# [6] = test system: α1L adrenoceptor; assay: Functional antagonism of noradrenaline-induced contractions of rabbit aorta pretreated with chloroethylclonidine; assay type: biochemical; conditions: functional affinity, NA-induced contractions
# Method: Adult male New Zealand rabbits were sacrificed by cervical dislocation. The aorta was removed, placed in Krebs-Henseleit buffer and dissected free of adhering tissue.
# Each antagonist concentration was tested using 2-3 aortic rings from different rabbits.
# Dose ratios (i.e., the ratio between the concentrations of noradrenaline required to produce half-maximal response in the presence and in the absence of the test antagonist) were calculated at each concentration of the compounds.
# [7] = test system: urethral contractions (UP) induced by hypogastric-nerve stimulation (HYP); assay: Urethral contractions induced by hypogastric-nerve stimulation in anaesthetised dogs, i.v. administration; assay type: in vivo; conditions: Canis lupus familiaris, iv, dog, dose inhibiting by 50% urethral contractions induced by hypogastric-nerve stimulation, read-out: UP ID50 HYP
# Method: as §1, with “In order to compare the effects of the administered compound, dose/response curves were constructed by computing, at the peak effect, the percent decrease in diastolic blood pressure and the percent inhibition of the increase in urethral pressure induced by both types of stimulation used.” left out
# [8] = read-out: Affinity (Ki, nM) α1d, recombinant receptor, [3H]prazosin
SMILES,Ki [1],Ki [4],further results
"COc1ccc(Cl)cc1N1CCN(CCCNC(=O)c2c(-c3ccccc3)noc2C)CC1 [Example 1, N-{3-[4-(5-Chloro-2-methoxyphenyl)-1-piperazinyl]-propyl}-5-methyl-3-phenylisoxazole-4-carboxamide]",,,"Ki [1, 8]: 2.72 nM; DBP ED25 [2]: 345.4 µg/kg; ED50 [3]: 3.4 µg/kg; R1 (DBP/NA) [3]: 101.6"
"COc1ccc(OCC(F)(F)F)cc1N1CCN(CCCNC(=O)c2c(-c3ccccc3)noc2C)CC1 [Example 4, N-{3-[4-[2-Methoxy-5-(2,2,2-trifluoroethoxy)phenyl]-1-piperazinyl]-propyl}-5-methyl-3-phenylisoxazole-4-carboxamide]",128 nM,17 nM,Ki [5]: > 1000 nM
"Cc1onc(-c2ccccc2)c1C(=O)NCCCN1CCN(c2cc(F)ccc2OCC(F)(F)F)CC1 [Example 5, N-{3-[4-[5-Fluoro-2-(2,2,2-trifluoroethoxy)-phenyl]-1-piperazinyl]-propyl}-5-methyl-3-phenylisoxazole-4-carboxamide]",,,pKb [6]: 8.79; ED50 [7]: 3.4 µg/kg; DBP ED25 [2]: 197.0 µg/kg; ED50 [3]: 2.7 µg/kg; R1 (DBP/NA) [3]: 73
"Cc1onc(-c2ccccc2)c1C(=O)NCCCN1CCN(c2ccc(F)cc2OCC(F)(F)F)CC1 [Example 6, N-{3-[4-[4-Fluoro-2-(2,2,2-trifluoroethoxy)-phenyl]-1-piperazinyl]-propyl}-5-methyl-3-phenylisoxazole-4-carboxamide]",,,"Ki [1, 8]: 18.9 nM; ED50 [7]: 4.5 µg/kg; DBP ED25 [2]: 196.7 µg/kg; ED50 [3]: 2.4 µg/kg; R1 (DBP/NA) [3]: 82"
"O=C(NCCCN1CCN(c2ccc(F)cc2OCC(F)(F)F)CC1)c1conc1-c1ccc(F)cc1 [Example 8, 3-(4-Fluorophenyl)-N-{3-[4-[4-fluoro-2-(2,2,2-trifluoroethoxy)-phenyl]-1-piperazinyl]-propyl}-isoxazole-4-carboxamide]",25.8 nM,0.11 nM,
"Cc1onc(-c2c(F)cccc2Cl)c1C(=O)NCCCN1CCN(c2ccccc2OCC(F)(F)F)CC1 [Example 12, 3-(2-Chloro-6-fluorophenyl)-5-methyl-N-{3-[4-[2-(2,2,2-trifluoroethoxy)phenyl)-1-piperazinyl]-propyl}-isoxazole-4-carboxamide]",2.19 nM,0.16 nM,

# Continued by falling Ki [1], values first:
Ki [1],Ki [4],SMILES,further results
38.9 nM,0.918 nM,"Cc1onc(-c2ccccc2)c1C(=O)NCCCN1CCN(c2cc(Cl)ccc2OS(=O)(=O)C(F)(F)F)CC1 [Example 7, N-{3-[4-[(5-Chloro-2-trifluoromethanesulphonyloxy)-phenyl]-1-piperazinyl]-propyl}-5-methyl-3-phenylisoxazole-4-carboxamide]",Ki [5]: 1000 nM
38.6 nM,2.28 nM,"Cc1onc(-c2c(Cl)cccc2Cl)c1C(=O)NCCCN1CCN(c2ccc(F)cc2OCC(F)(F)F)CC1 [Example 10, 3-(2,6-Dichlorophenyl)-N-{3-[4-[4-fluoro-2-(2,2,2-trifluoroethoxy)-phenyl]-1-piperazinyl]-propyl}-5-methylisoxazole-4-carboxamide.]",
25.2 nM,1.16 nM,"Cc1onc(-c2ccccc2)c1C(=O)NCCCN1CCN(c2cc(Cl)ccc2O)CC1 [Example 2, N-{3-[4-(5-Chloro-2-hydroxyphenyl)-1-piperazinyl]-propyl}-5-methyl-3-phenylisoxazole-4-carboxamide]",
6.15 nM,0.4 nM,"Cc1onc(-c2c(F)cccc2Cl)c1C(=O)NCCCN1CCN(c2ccc(F)cc2OCC(F)(F)F)CC1 [Example 9, 3-(2-Chloro-6-fluorophenyl)-N-{3-[4-[4-fluoro-2-(2,2,2-trifluoroethoxy)-phenyl]-1-piperazinyl]-propyl}-5-methylisoxazole-4-carboxamide]",
4.66 nM,0.12 nM,Cc1onc(-c2ccccc2Cl)c1C(=O)NCCCN1CCN(c2ccc(F)cc2OCC(F)(F)F)CC1 [Example 11],
